According to US10945981B2, “Methods for treating familial adenomatous polyposis” (CANCER PREVENTION PHARMACEUTICALS, INC., priority 2019, dated 2021):
Entries after “also recorded” stand apart in the source; their conditions may differ.

Tests used:
[1] = tested on: patients with Familial Adenomatous Polyposis (FAP); assay: Randomized, double-blind phase III trial in FAP patients: safety (adverse events); details: for Treatment-related serious adverse events: 1 patient each
[2] = human, in vivo; cited from earlier work
[3] = tested on: patients with Familial Adenomatous Polyposis (FAP); assay: Randomized, double-blind phase III trial in FAP patients: FAP-related events (efficacy); format: in vivo, human; details: for Mean time to first FRE: Kaplan-Meier estimated; for Hazard ratio: combination versus the arm named
Text: Patients were stratified by anatomic site with highest polyp burden and surgical status: (a) post colectomy with rectal or ileal pouch polyposis (longest projected time to first FRE); (b) with duodenal polyposis (intermediate projected time to first FRE); and (c) pre-colectomy (shortest projected time to first FRE) prior to randomization to minimize treatment imbalance.
A stratified randomization procedure was used with stratification based on FAP-related time-to-first-event prognosis (see FIG. 1). The event prognosis groups were represented by 1) best (i.e., longest projected time to first FAP-related event)—rectal/pouch polyposis (Post-colectomy (≥3 years S/P IRA or IPAA with >10 polyps; any polyps >5 mm excised at baseline)), 2) intermediate—duodenal polyposis (Spigelman Stage 3 or 4 or Spigelman Stage 3 or 4 down-staged to Spigelman 1 or 2 within the past 6 months), and 3) worst—pre-colectomy. If a subject has two or more of these disease sites, the most severe prognosis stratum was assigned for randomization (e.g. worst>intermediate>best). Since an individual may have more than one disease site involved, the trial assessed time to any defined FAP-related event in the subject as a whole. In order to minimize potential treatment arm imbalance a centralized randomization process was used to balance among treatment groups within prognostic strata.
Lower GI Endoscopy: Patients were evaluated via colonoscopy, flexible or rigid procto-sigmoidoscopy during the screening phase. Biopsies, ablations, and snare excisions at baseline were performed per the clinician's standard of care. If considered eligible based on inclusion criteria, a grossly normal mucosa biopsy was obtained for baseline polyamine measurement. Still and video documentation of the colon (vide infra) or the residual rectum or entire pouch was also obtained for archiving. Polyp size was determined by visual comparison with biopsy forceps that can measure 5.0-5.5 mm in the fully open position. All randomized patients with an intact colon or rectum/pouch had baseline and on-study lower GI endoscopy procedures as part of this trial.
Upper GI Endoscopy: The duodenum was evaluated by forward-viewing and/or side-viewing gastroscopes (with still and video documentation with closed and open biopsy forceps near mucosa). All randomized patients with a duodenum had baseline and on-study UGI endoscopy as part of this trial. Subjects stratified to the duodenal group must have duodenal biopsies of all polyps 1 cm or larger to determine HGD and histology required for determining Stage 3 or 4 Spigelman status.
FAP-related primary events by disease site were as follows: • 1. Pre-operative, intact colon: Disease progression indicating need for colectomy with IRA or total procto-colectomy • 2. Retained rectum or pouch events include one or more of the following: • a) Excisional intervention by endoscopic snare or trans-anal excision to remove any polyp ≥10 mm in size (per pathology report) and/or pathologic evidence of high grade dysplasia. • b) Disease progression indicating need for proctectomy or pouch resection • 3. Duodenal disease includes the following: • a) Progression in Spigelman Stage to more advanced stage (Stage 2, 3 or 4) • b) Disease progression indicating need for excisional intervention (sub-mucosal resection, trans-duodenal excision, ampullectomy, duodenectomy, Whipple procedure) • c) Development of cancer
At six month intervals (+/−two weeks), subjects underwent repeat upper and lower endoscopy. […] Video recordings of all procedures and qualitative assessments were compared to the exam 6 months prior.

[4] = cited from earlier work
[5] = in vivo; cited from earlier work
patients with FAP = details: cited from earlier work
[6] = disease site colon, number of subjects
[7] = disease site duodenum, number of subjects
[8] = disease site rectum and pouch, number of subjects
[9] = post-colectomy, rectal/ileal pouch stratum

CC1=C(CC(=O)O)c2cc(F)ccc2/C1=C\c1ccc([S+](C)[O-])cc1 (stereo not shown) [Sulindac, (Z)-5-fluoro-2-methyl-1-((4-(methylsulfinyl)phenyl)methylene)-1H-indene-3-acetic acid]
Discontinuations due to AEs, number of patients [1]: 6 patients
Discontinuations due to AEs, percent of patients [1]: 10.3%
TRAE reported by % of patients [1]: 73.7%
Treatment-related hearing adverse events: Hearing loss N [1]: 2
Treatment-related hearing adverse events: Tinnitus N [1]: 5
Treatment-related serious adverse events [1]: Severe Nausea; also recorded: Deep Vein Thrombosis; also recorded: Worsening of Depression; also recorded: Spontaneous Abortion
Treatment-related serious adverse events ([1]; listed as sulindac): severe nausea, deep vein thrombosis, worsening of depression, and spontaneous abortion
Death ([1]; safety population): 0 n (%)
Number of patients discontinuing due to a TRAE ([1]; safety population): 5 (8.8) n (%)
Number of patients reporting TEAEs ([1]; safety population): 50 (87.7) n (%)
Number of patients reporting TEAEs ≥ Grade 3 ([1]; safety population): 12 (21.1) n (%)
Number of patients reporting TRAE: Abdominal distension ([1]; safety population): 3 (5.3) n (%)
Number of patients reporting TRAE: Abdominal pain ([1]; safety population): 4 (7.0) n (%)
Number of patients reporting TRAE: Alopecia ([1]; safety population): 3 (5.3) n (%)
Number of patients reporting TRAE: Decreased appetite ([1]; safety population): 4 (7.0) n (%)
Number of patients reporting TRAE: Depression ([1]; safety population): 3 (5.3) n (%)
Number of patients reporting TRAE: Diarrhea ([1]; safety population): 3 (5.3) n (%)
Number of patients reporting TRAE: Dizziness ([1]; safety population): 2 (3.5) n (%)
Number of patients reporting TRAE: Dyspepsia ([1]; safety population): 4 (7.0) n (%)
Number of patients reporting TRAE: Fatigue ([1]; safety population): 4 (7.0) n (%)
Number of patients reporting TRAE: Flatulence ([1]; safety population): 3 (5.3) n (%)
Number of patients reporting TRAE: Frequent bowel movements ([1]; safety population): 1 (1.8) n (%)
Number of patients reporting TRAE: Gastritis erosive ([1]; safety population): 0 n (%)
Number of patients reporting TRAE: Headache ([1]; safety population): 7 (12.3) n (%)
Number of patients reporting TRAE: Hematochezia ([1]; safety population): 2 (3.5) n (%)
Number of patients reporting TRAE: Nausea ([1]; safety population): 9 (15.8) n (%)
Number of patients reporting TRAE: Pruritus ([1]; safety population): 4 (7.0) n (%)
Number of patients reporting TRAE: Rash ([1]; safety population): 0 n (%)
Number of patients reporting TRAE: Rectal hemorrhage ([1]; safety population): 4 (7.0) n (%)
Number of patients reporting TRAE: Thrombocytopenia ([1]; safety population): 3 (5.3) n (%)
Number of patients reporting TRAE: Tinnitus ([1]; safety population): 5 (8.8) n (%)
Number of patients reporting TRAE: Upper abdominal pain ([1]; safety population): 1 (1.8) n (%)
Number of patients reporting TRAE: Vomiting ([1]; safety population): 4 (7.0) n (%)
Number of patients reporting TRAEs ([1]; safety population): 42 (73.7) n (%)
Number of patients reporting TRSAEs ([1]; safety population): 4 (7.0) n (%)
Mild gastrointestinal effects, percent of patients [2]: ~20%
Skin rash and pruritus, percent of patients [2]: 5%
Kaplan-Meier estimated mean time to first FRE ([3]; ITT population): 23.6 months
Event-free rate ([3]; ITT population, cumulative): 63.1%
FREs occurred, percent of patients ([3]; ITT population, cumulative): 37.9%
Surgical FAP-related events, Colon: Event-free proportion ([3]; disease site colon): 69.2%
Surgical FAP-related events, Colon: Colectomy [3, 6]: 2
Surgical FAP-related events, Colon: Disease progression [3, 6]: 4
Surgical FAP-related events, Duodenum: Event-free proportion ([3]; disease site duodenum): 70.2%
Surgical FAP-related events, Duodenum: Disease progression [3, 7]: 10
Surgical FAP-related events, Duodenum: Excisional intervention [3, 7]: 6
Surgical FAP-related events, Duodenum: Spigelman stage progression [3, 7]: 7
Surgical FAP-related events, Rectum and Pouch: Event-free proportion ([3]; disease site rectum and pouch): 95%
Surgical FAP-related events, Rectum and Pouch: Disease progression [3, 8]: 2
Surgical FAP-related events, Rectum and Pouch: Proctectomy/pouch resection [3, 8]: 1
FRE type: Duodenal excision ([3]; duodenal polyposis stratum): 6
FRE type: Duodenal excision and Spigelman stage progression ([3]; duodenal polyposis stratum): 2
FRE type: Duodenal excision and ≥ 10 mm polyp removed in rectum/pouch ([3]; duodenal polyposis stratum): 1
FRE type: Proctocolectomy and ≥ 10 mm polyp removed in rectum/pouch ([3]; duodenal polyposis stratum): 1
FRE type: Spigelman stage progression ([3]; duodenal polyposis stratum): 3
FRE type: ≥10 mm polyp removed in rectum/pouch ([3]; duodenal polyposis stratum): 1
Patients with FRE, % ([3]; duodenal polyposis stratum): (41.2) %
Total FRE ([3]; duodenal polyposis stratum): 14
Mean time to first FRE ([3]; duodenal polyposis stratum): 21.1 months
Risk reduction versus combination ([3]; duodenal polyposis stratum, combination relative to the arm named): 29%
Hazard ratio ([3]; duodenal polyposis stratum): 0.716
Patients with FRE, % ([3]; duodenal polyposis stratum, listed as sulindac): 41.2%
Progression of lower gastrointestinal polyposis: surgeries ([3]; human, in vivo): 3
Patients with duodenal polyposis progression who underwent duodenal excisional procedures ([3]; number of patients): 6
FRE type: Pouch resection [3, 9]: 1
FRE type: ≥10 mm polyp removed in rectum/pouch [3, 9]: 1
Patients with FRE, % [3, 9]: (18.2) %
Total FRE [3, 9]: 2
Mean time to first FRE [3, 9]: 27.5 months
Risk reduction versus combination ([3]; post-colectomy, rectal/ileal pouch stratum, combination relative to the arm named): 16%
Hazard ratio [3, 9]: 0.841
Patients with FRE, % ([3]; post-colectomy, rectal/ileal pouch stratum, listed as sulindac): 18.2%
FRE type: Colectomy ([3]; pre-colectomy stratum): 4
FRE type: Duodenal excision and Spigelman stage progression ([3]; pre-colectomy stratum): 1
FRE type: Spigelman stage progression ([3]; pre-colectomy stratum): 1
Patients with FRE, % ([3]; pre-colectomy stratum): (46.2) %
Total FRE ([3]; pre-colectomy stratum): 6
Mean time to first FRE ([3]; pre-colectomy stratum): 25.2 months
Hazard ratio ([3]; pre-colectomy stratum): 0.299
Patients with FRE, % ([3]; pre-colectomy stratum, listed as sulindac): 46.2%
Risk reduction versus combination ([3]; pre-colectomy stratum, risk reduction for FRE of the combination relative to the arm named): 70%
Event Rate of FAP-related Surgery Events in Lower GI ([3]; subjects with lower GI anatomy): 6/58 (10%)
Lower GI surgery events: Need colectomy ([3]; subjects with lower GI anatomy): 4
Lower GI surgery events: Need pouch resection ([3]; subjects with lower GI anatomy): 1
Lower GI surgery events: Need proctectomy ([3]; subjects with lower GI anatomy): 1
Lower GI surgery events: Total Surgical Events ([3]; subjects with lower GI anatomy): 6
Progression of lower gastrointestinal polyposis: polypectomies ([3]; ≥10 mm in size and/or high grade dysplasia): 4
Time to peak plasma levels ([4]; oral, fasting patients): about 2 hours
Drug absorbed after oral administration ([4]; oral): about 90%

Cc1ccc(-c2cc(C(F)(F)F)nn2-c2ccc(S(N)(=O)=O)cc2)cc1 [celecoxib, 4-[5-(4-Methylphenyl)-3-(trifluoromethyl)pyrazol-1-yl]benzenesulfonamide]
Increase in rates of heart and blood vessel disease [5]: 30%
Risk of gastrointestinal side effects [5]: greater than 80%
Reduction of measures of global tumor burden from baseline (patients with FAP): 30%
Reduction of the number of colonic adenomas (patients with FAP): 1%

CSc1ccc(/C=C2/C(C)=C(CC(=O)O)c3cc(F)ccc32)cc1 [sulfide metabolite]
Mean half-life ([4]; in vivo): 16.4 h
